The source made the active and inactive calls.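 Rule for the calls: active = fitted curve reaching 40% activation at or below the top valid dose tested; inconclusive = flat curve at 30 to 70% activation, or poor fit; inactive = the rest.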

The experiment concerns SK-MEL-5 TRPM1 promoter luciferase reporter, 24 h. Put plainly: MITF activators via TRPM1 promoter reporter, dose response, SK-MEL-5 cells, luciferase, cherry-pick samples (AID 540258).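 Note: potency for activators that raise TRPM1 promoter luciferase signal.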
As to `COc1ccc2[nH]c(-c3ccccc3)cc2c1`, the AC40 was 0.977 µM. For `O=C(Nc1ccc(O)cc1)c1cc2ccccc2c(=O)s1`, the AC40 is 2.3 µM. Consider `CC(=O)c1ccc2oc3ccccc3c(=O)c2c1`, for which the AC40 is 10.1 µM.

`Nc1nc(-c2cc(-c3ccccc3)no2)cs1`: the AC40 is 0.331 µM.

As to `CCCNC(=O)Nc1nc2ccccc2s1`, the AC40 is 0.513 µM.

Regarding `CC1CCC(NC(=O)c2ccc(NS(=O)(=O)c3ccc4[nH]c(=O)[nH]c4c3)cc2)CC1` (configuration not stated), the AC40 is 25.1 µM. Take `CCc1ccc(NC(=O)c2n[nH]c(=O)c3ccccc23)cc1`: the AC40 was 1.1 µM. In the case of `Cc1cc(Cl)ccc1OCc1cn2cccnc2n1`, the AC40 is 1.41 µM.

With `CN(N=O)c1ccc(CC2CCc3ccccc32)cc1` (configuration not stated), the AC40 is 12.6 µM. Then `O=C(Nc1ccc(Cl)c(Cl)c1)OCc1cccnc1`, with 7.44 µM; and `CC(=O)c1ccc(NC(=O)Nc2ccc3c(c2)nc(C)n3C)cc1`, with 31.2 µM; and `COc1ccc(N=C(C)c2sc3ccccc3c2O)cc1`, with 1.82 µM.

With `O=C(Cc1ccc(O)cc1)NC1CCCCCC1`, the AC40 was 10.6 µM.

With `CCc1ccc(C(=O)N/N=C(\C)c2cccnc2)s1`, the AC40 is 8.9 µM.

With `O=c1c2ccccc2oc2cc(-c3ccc4cc[nH]c4c3)ccc12`, the AC40 is 2.25 µM.

Consider `O=C(Nc1ccc2c(c1)OCO2)c1cc(-c2ccccc2Cl)on1`, for which the AC40 is 2.06 µM. Then `CSc1ccc(CNc2ccc(Cl)cc2)cc1`, with 5.67 µM. With `CNC(=O)c1ccc(-c2cc3onc(-c4ccccc4)c3c(=O)n2C)cc1`, the AC40 was 6.96 µM. For the compound `COc1ccc(-c2cn3cccc(C)c3n2)cc1F`, the AC40 was 0.565 µM. For `CCc1ccc(NC(=O)c2cc(-c3cccs3)on2)cc1`, the AC40 was 12.3 µM. Turning to `c1ccc(CSCc2nc3ccccc3[nH]2)cc1`, the AC40 is 6.65 µM.

Regarding `Nc1ccc(C#Cc2ccc3c(=O)c4ccccc4oc3c2)cc1`, the AC40 is 4.44 µM. As to `Cn1c(SCc2ccccc2Cl)nc2ccccc21`, the AC40 is 0.794 µM. As to `N#Cc1cc(C#N)c(N2CCN(c3ccccn3)CC2)nc1N`, the AC40 was 4.47 µM. On to `CCn1c(C)nc2cc(C(=O)N/N=C(\C)c3ccccc3O)ccc21`, for which the AC40 was 3.48 µM.

For `COc1cc2c(C)nc3c(cnn3-c3ccccc3)c2cc1OC`, the AC40 was 2.87 µM. Then `COc1ccc(/C=C2\CCn3c2nc2ccccc2c3=O)cc1OC`, with 0.899 µM. With `CCN1CCN(c2cc3c(nn2)Oc2ccccc2N3C)CC1`, the AC40 is 5.84 µM. Consider `N/C(=N\OC(=O)c1ccc2c(c1)OCO2)c1ccc(Cl)cc1`, for which the AC40 is 5.31 µM. In the case of `CCN=c1scc(-c2ccc(F)cc2)n1/N=C/c1ccccn1`, the AC40 was 0.798 µM. As for `Cc1ccc(CNc2ccc3c(c2)ncn3C(C)C)cc1`, the AC40 was 2.63 µM. `CCCn1nnc(NC(=O)c2ccc(-c3ccccc3)cc2)n1`: the AC40 is 2.69 µM. Then `Cc1cc(C(=O)Cn2nc(C(=O)O)c3ccccc3c2=O)c(C)n1CC(F)(F)F`, with 9.43 µM; and `C=CCNC(=O)c1ccc2nc(Cc3ccc(OC)cc3)oc2c1`, with 2.37 µM.

For `CC(=O)c1cnc2c(-c3cccc(Br)c3)cnn2c1C`, the AC40 was 13.2 µM.

As for `O=C(Nc1ccc2ccccc2c1)c1cc(F)c(F)cc1Cl`, the AC40 is 1.86 µM.

As to `CC(=O)c1ccc(Nc2ccc(-c3ccccc3C)nn2)cc1`, the AC40 was 4.2 µM. With `COc1ccccc1NC(=O)Nc1ccc(C(=O)N2CCCCC2)cc1`, the AC40 was 16.6 µM. Take `COc1nc(C)ccc1-c1noc(-c2ccncc2)n1`: the AC40 was 2.67 µM.

Turning to `O=C(Nc1ccc2oc(-c3ccccc3)nc2c1)c1cccnc1`, the AC40 is 5.22 µM. `Cc1ccc(NCC(=O)c2ccc(C)cc2)cc1`: the AC40 is 9.65 µM. `Cc1ccc(Nc2nc(Cl)nc(NC(C)(C)C)n2)cc1`: the AC40 is 3.69 µM. In the case of `CC(C)(C)c1ccc(-c2cc(C(=O)NNC(=O)Nc3ccccc3)c3ccccc3n2)cc1`, the AC40 is 3.33 µM. For `Cc1ccc(-c2cn(-c3ccccc3)c(=S)[nH]2)cc1C`, the AC40 was 0.997 µM. In the case of `O=C(Nc1ccc(-c2nc3cccnc3s2)cc1)c1ccc(Cl)nc1`, the AC40 is 2.11 µM. Regarding `CSc1cccc(NC(=O)c2cnn3ccccc23)c1`, the AC40 is 1.03 µM. As for `Cn1cccc1C(=O)C(=O)Nc1ccc(F)c(F)c1`, the AC40 is 0.855 µM. In the case of `Cc1nc(NC(C)C)c2cnn(CCc3ccccc3)c2n1`, the AC40 is 7.11 µM. `CCC(C)NC(=O)c1cn(-c2cccc(C)n2)cn1` (configuration not stated): the AC40 was 10.6 µM. On to `O=C(c1noc2c1CCCC2)N1CCc2ccccc2C1`, for which the AC40 was 5.97 µM. As to `COC(=O)c1ccc(/C=N/Nc2nc(C)c(C)s2)cc1`, the AC40 was 1.5 µM.

Take `Nc1ccc2cc3ccccc3cc2c1`: the AC40 was 2.88 µM. Take `O=c1nc2sc3ccccc3n2c(=O)n1-c1ccc(Cl)cc1`: the AC40 was 3.48 µM. Take `Nc1nc(COc2ccc3ccccc3c2)cs1`: the AC40 is 4.97 µM. As for `COc1cccc(NC(=O)C(=O)NCCC2CCCCN2S(=O)(=O)c2cccs2)c1` (configuration not stated), the AC40 is 4.24 µM. As for `CC(C)(C)n1ncc2c(=O)n(CC(=O)c3ccccc3)cnc21`, the AC40 is 2.87 µM.

For `Nc1ccc(-c2nnc(-c3ccc(N)cc3)o2)cc1`, the AC40 is 2.45 µM. In the case of `C(=N\Nc1nc2ccccc2[nH]1)/c1c[nH]c2ccccc12`, the AC40 is 5.09 µM. Then `c1ccc(-n2ncc3c(NCc4cccs4)ncnc32)cc1`, with 2.66 µM; and `CC(=O)N(c1ccccc1)c1nnc(-c2cnc(C)cn2)s1`, with 1.55 µM. Take `O=C(c1cccs1)N1CCn2c1nc1ccccc12`: the AC40 is 4.69 µM.

Consider `COC(=O)c1cc(-c2ccc(OC)cc2)n[nH]1`, for which the AC40 was 6.21 µM. For the compound `O=C(NCCc1c[nH]c2ccccc12)c1cc(Cl)c2c(c1)OCO2`, the AC40 was 17 µM. Then `COc1ccc(/C(C)=N/Nc2nncc3ccccc23)cc1`, with 0.58 µM.

For the compound `Nc1ccccc1N=Nc1ccccc1N`, the AC40 was 27 µM. Turning to `CC1(C)CC(=O)c2c(O)cc(OCc3ccc(Br)cc3)cc2O1`, the AC40 was 1.33 µM. As to `COc1ccc(/C=N/Nc2nccnc2Cl)c(OC)c1`, the AC40 was 2.68 µM.

Take `N#Cc1ccsc1NC(=O)CCc1ccccc1`: the AC40 was 9.77 µM. In the case of `Cc1ccn2c(C(=O)c3ccc(Cl)cc3)cnc2c1`, the AC40 is 0.803 µM. Regarding `Cc1ccc(/C=N/N2C(=O)c3ccccc3NC2c2ccc(C)cc2)cc1` (configuration not stated), the AC40 was 20.5 µM.

With `COc1cc(SC)ccc1C(=O)NCC1CCCCC1`, the AC40 is 14.4 µM. In the case of `COc1cccc(-c2cc(C(=O)Nc3ccccc3SC)no2)c1`, the AC40 is > 35 µM (inactive). Then `COC(=O)Cn1c(C)nc2c(sc3nc(C)cc(C)c32)c1=O`, with 2.35 µM; and `COC(=O)/C(=C1\Oc2ccc(C(C)(C)C)cc2S1)C(F)(F)F`, with 3.81 µM; and `COc1ccc(C(=O)/C=C/Nc2cccc(C)n2)cc1OC`, with 0.977 µM. For the compound `CC(=O)c1sc(NC(=O)c2ccc3c(c2)OCO3)nc1C`, the AC40 is 1.39 µM. As for `CCc1ccc(OC(=O)Nc2ccccc2)cc1`, the AC40 was 0.469 µM. Then `O=C(CNc1cccc(F)c1)N1CCc2ccccc2C1`, with 4.43 µM.

Consider `CC(C)(C)C(=O)N1CCN(c2nc3ccccc3s2)CC1`, for which the AC40 is 1.86 µM. For `Cc1cccc2c1-c1sc(C(=O)N3CCCCC3)cc1CO2`, the AC40 was 2.7 µM. Turning to `CCCCNC(=O)c1cc2ccccc2s1`, the AC40 is 31 µM. In the case of `Clc1ccc(-c2cc(CSc3ccccc3)on2)cc1`, the AC40 was 1.45 µM. Then `O=C(c1ccc(F)cc1)c1ccc(N2CCCCC2)cc1`, with 1.49 µM; and `C/C(=N\OC(=O)Nc1ccccc1)c1ccc(C)cc1`, with 3.45 µM. `Cc1ccc2cc(/C=N/Nc3ccc(C(=O)O)cc3)c(Cl)nc2c1`: the AC40 was 1.37 µM. In the case of `COc1ccc(-c2nn(-c3ccccc3)cc2C#N)cc1`, the AC40 was 3.24 µM. For the compound `CC(C)(C)c1ccc(-c2noc(-c3ccno3)n2)cc1`, the AC40 is 0.472 µM.

Regarding `N#Cc1c(-c2ccc(Cl)cc2)ccn2nc(C3CCCCC3)nc12`, the AC40 was 2.4 µM. Take `COc1ccc2c(c1OC)C(=O)N1c3ccccc3COC21` (configuration not stated): the AC40 was 0.955 µM. Then `COC(=O)c1ccc2[nH]c(C3(O)CCCCC3)c(C)c2c1`, with 10.3 µM; and `Cc1ccc(NC(=O)CC(=O)c2ccccc2)cc1C`, with 3.33 µM; and `Cc1ccn(-c2cccc(-n3ccc(C)n3)n2)n1`, with 0.834 µM. Then `O=C(Nc1ccc(Br)cc1F)c1ccc2nsnc2c1`, with 1.31 µM. `Oc1oc(-c2ccccc2)nc1C=NCc1ccccc1`: the AC40 was 11.3 µM.

Consider `CCn1c(C(=O)OC)cc2c1ccn2-c1ccc(F)cc1`, for which the AC40 was 2.94 µM. `CN(C)c1ccnc2sc3c(SCc4ccc(Cl)cc4)ncnc3c12`: the AC40 was 4.29 µM.

As to `CC(=O)Nc1c(-c2ccc3ccccc3c2)nc2ccccn12`, the AC40 is 9.16 µM. Regarding `CCc1nc(NC(C)(C)C)c2cnn(-c3ccccc3)c2n1`, the AC40 is 6.25 µM. Regarding `CCn1c(C(=O)NC2CCC(C)CC2)cc2sccc21` (configuration not stated), the AC40 is 8.36 µM. For `O=c1nc(/C=C/c2ccc(O)c(O)c2)oc2ccccc12`, the AC40 was 6.32 µM. As for `COc1ccc(/C=N/N=C2/SCC(=O)N2Cc2ccccc2)cc1`, the AC40 is 2.67 µM. For `COc1ccc(Nc2nc(N)c3ccccc3n2)c(OC)c1`, the AC40 was 2.4 µM.

Regarding `CC(NS(=O)(=O)c1cccc(Cl)c1)C(=O)Nc1ccc(-c2nc3ccccc3s2)cc1` (configuration not stated), the AC40 was 6.96 µM. Regarding `CCc1ccc2[nH]c3nc(C)cc(C)c3c(=O)c2c1`, the AC40 was 4 µM.

As for `CCCc1ccc(OCc2nc(-c3ccc(NC(=O)c4cccs4)cc3)no2)cc1`, the AC40 was 14.2 µM. In the case of `Cc1nn2c(-c3ccccc3)ccnc2c1-c1ccccc1`, the AC40 was 4.34 µM. With `Cc1cc(C)c2nc(NCc3ccccc3O)sc2c1`, the AC40 was 19 µM. As for `CCn1c(COc2ccccc2C)nc2ccccc21`, the AC40 was 9.77 µM. Take `CC(=O)c1cccc(NC(=O)c2cc3nc(C)cc(C)n3n2)c1`: the AC40 was 2.7 µM. On to `Nc1c(C(=O)N2CCCC2)sc2nc(-c3ccccc3)ccc12`, for which the AC40 is 6.19 µM. Regarding `COc1ccccc1/C=C/C=N/n1c(-c2ccccn2)n[nH]c1=S`, the AC40 is 13.5 µM.

For `O=S(=O)(c1cccs1)N1CCCc2cccc(O)c21`, the AC40 was 7.11 µM.

The values above are taken from PubChem BioAssay AID540258 (Broad Institute, 2011).
